# Data published in patent publication US20010031790A1, “Treatment for complications of type 2 diabetes” (priority 1999, published 2001).
# Entries after “also recorded” stand apart in the source; their conditions may differ. Marks after values point to notes of the source that are not given here.
# Experiment: Clinical comparison of patient groups: plasma MG, D-lactate and HbA1c in type 2 diabetic subjects receiving low or high daily dosages of metformin
# Type: in vivo, human
# Settings: for DL (D-lactate) / HbA1c / MG (plasma methylglyoxal level): diabetic subjects
# From the text: The differences noted above are shown in the following summary of clinical results utilizing patient groups of individuals free of diabetes, those having diabetes but receiving no metformin, those having diabetes and receiving one gram or less of metformin daily and those receiving more than a gram of metformin daily, respectively. In Table 1, the number of patients in each group is noted as are the levels of plasma MG, DL(D-lactate) and […] (HbA1c).
compound,measurement,setting,value
"CN(C)C(=N)N=C(N)N [Metformin, N,N-dimethylimidocarbonimide diamide]",DL (D-lactate),"metformin >1 g/day, n=13",13.4 ± 4.6^c μmol/l
same,HbA1c,"metformin >1 g/day, n=13",8.3 ± 1.0%
same,MG (plasma methylglyoxal level),"metformin >1 g/day, n=13",158.4 ± 44.2^b nmol/l
same,DL (D-lactate),"metformin ≦1 g/day, n=17",13.8 ± 7.7^c μmol/l
same,HbA1c,"metformin ≦1 g/day, n=17",8.0 ± 1.1%
same,MG (plasma methylglyoxal level),"metformin ≦1 g/day, n=17",210.9 ± 51.0 nmol/L
same,"plasma level of MG, result in words","group taking high dosages of metformin, versus low dosage group and diabetics without metformin",significant lowering of plasma levels of MG; also recorded: significantly lower plasma level of MG
same,difference in glycemic control between high and low dosages,high versus low dosage groups of metformin,little difference in glycemic control
same,"levels of D-lactate, result in words","metformin administration versus diabetic control group receiving no metformin, no significant difference between high and low dosages",increased
